molecular target: T1, recombinant guanylate cyclase reporter cell line (Rattus norvegicus, UniProt P19686+P20595); assay: B-2. Action on recombinant guanylate cyclase reporter cell line; format: cell-based; conditions: MEC = minimal effective concentration; in some cases mean values from individual determinations
T1 construct: expressed in transfected cells
T1 sequence (P20595 1-619): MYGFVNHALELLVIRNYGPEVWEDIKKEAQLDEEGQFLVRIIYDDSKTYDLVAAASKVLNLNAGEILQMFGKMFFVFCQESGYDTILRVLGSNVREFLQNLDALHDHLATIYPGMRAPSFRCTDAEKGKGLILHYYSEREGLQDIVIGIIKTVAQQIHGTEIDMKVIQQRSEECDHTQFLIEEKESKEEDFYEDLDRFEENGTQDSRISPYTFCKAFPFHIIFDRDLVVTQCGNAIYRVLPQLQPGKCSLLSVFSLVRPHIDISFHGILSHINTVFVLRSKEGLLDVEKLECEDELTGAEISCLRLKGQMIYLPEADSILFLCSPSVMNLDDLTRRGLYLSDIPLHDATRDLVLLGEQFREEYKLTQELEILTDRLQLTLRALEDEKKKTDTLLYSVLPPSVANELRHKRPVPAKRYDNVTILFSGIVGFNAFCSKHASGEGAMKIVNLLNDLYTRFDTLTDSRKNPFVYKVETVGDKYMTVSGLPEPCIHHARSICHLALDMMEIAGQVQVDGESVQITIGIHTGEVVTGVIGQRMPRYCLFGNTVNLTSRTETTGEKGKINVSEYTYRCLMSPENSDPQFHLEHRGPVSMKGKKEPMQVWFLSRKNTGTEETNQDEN
T1 sequence (P19686 1-690): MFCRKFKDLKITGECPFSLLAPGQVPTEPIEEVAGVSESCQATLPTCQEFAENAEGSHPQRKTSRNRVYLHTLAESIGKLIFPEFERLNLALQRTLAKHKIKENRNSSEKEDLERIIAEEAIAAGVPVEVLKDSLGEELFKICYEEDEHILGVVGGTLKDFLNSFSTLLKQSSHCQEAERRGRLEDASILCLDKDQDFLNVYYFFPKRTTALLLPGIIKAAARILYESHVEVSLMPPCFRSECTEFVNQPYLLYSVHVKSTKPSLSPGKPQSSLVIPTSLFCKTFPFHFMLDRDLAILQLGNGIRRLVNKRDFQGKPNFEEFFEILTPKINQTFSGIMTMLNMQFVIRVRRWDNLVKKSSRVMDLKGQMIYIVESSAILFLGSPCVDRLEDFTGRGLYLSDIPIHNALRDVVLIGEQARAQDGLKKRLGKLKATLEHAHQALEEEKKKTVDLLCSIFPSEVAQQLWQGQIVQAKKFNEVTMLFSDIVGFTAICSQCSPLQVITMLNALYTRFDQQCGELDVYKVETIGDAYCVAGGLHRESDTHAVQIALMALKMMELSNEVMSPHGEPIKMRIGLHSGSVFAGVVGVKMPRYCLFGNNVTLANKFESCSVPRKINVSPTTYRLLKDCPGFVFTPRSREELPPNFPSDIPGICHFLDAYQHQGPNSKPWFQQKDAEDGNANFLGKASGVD
In short: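 Cellular activity was measured in a reporter cell line expressing recombinant guanylate cyclase. Values are given as MEC, the minimal effective concentration, and some are means of individual determinations.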

Compound | MEC [µM]
Cc1cc(OCc2c(F)cccc2F)c2nc(C)c(C(=O)NCC(N)c3cccc(OCCO)c3)n2c1 (racemic) [Example 367, rac-N-{2-amino-2-[3-(2-hydroxyethoxy)phenyl]ethyl}-8-[(2,6-difluorobenzyl)oxy]-2,6-dimethylimidazo[1,2-a]pyridine-3-carboxamide] | 3.00
COc1ccc(CC(C)(N)CNC(=O)c2c(C)nc3c(OCc4c(F)cccc4F)cc(C)cn23)cc1 (racemic) [Example 368, rac-N-[2-amino-3-(4-methoxyphenyl)-2-methylpropyl]-8-[(2,6-difluorobenzyl)oxy]-2,6-dimethylimidazo[1,2-a]pyridine-3-carboxamide] | 0.10
Cc1cc(OCc2c(F)cccc2F)c2nc(C)c(C(=O)NCC(N)c3ccc(C)o3)n2c1 (racemic) [Example 369, rac-N-[2-amino-2-(5-methyl-2-furyl)ethyl]-8-[(2,6-difluorobenzyl)oxy]-2,6-dimethylimidazo[1,2-a]pyridine-3-carboxamide] | 0.30
Cc1cc(OCc2c(F)cccc2F)c2nc(C)c(C(=O)NCC(N)c3cnn(C)c3)n2c1 (racemic) [Example 370, rac-N-[2-amino-2-(1-methyl-1H-pyrazol-4-yl)ethyl]-8-[(2,6-difluorobenzyl)oxy]-2,6-dimethylimidazo[1,2-a]pyridine-3-carboxamide] | 3.00
Cc1cc(OCc2c(F)cccc2F)c2nc(C)c(C(=O)NCC(N)c3ccc4c(c3)OCCO4)n2c1 (racemic) [Example 371, rac-N-[2-amino-2-(2,3-dihydro-1,4-benzodioxin-6-yl)ethyl]-8-[(2,6-difluorobenzyl)oxy]-2,6-dimethylimidazo[1,2-a]pyridine-3-carboxamide] | 3.00
Cc1cc(OCc2c(F)cccc2F)c2nc(C)c(C(=O)NCC(N)c3ccc4ncccc4c3)n2c1 (racemic) [Example 372, rac-N-[2-amino-2-(quinolin-6-yl)ethyl]-8-[(2,6-difluorobenzyl)oxy]-2,6-dimethylimidazo[1,2-a]pyridine-3-carboxamide] | 3.00
Cc1cc(OCc2c(F)cccc2F)c2nc(C)c(C(=O)NCC(N)c3csc4ccccc34)n2c1 (racemic) [Example 373, rac-N-[2-amino-2-(1-benzothiophen-3-yl)ethyl]-8-[(2,6-difluorobenzyl)oxy]-2,6-dimethylimidazo[1,2-a]pyridine-3-carboxamide] | 3.00
Cc1cc(OCc2c(F)cccc2F)c2nc(C)c(C(=O)NCC(N)c3cc(F)c(F)c(F)c3)n2c1 (racemic) [Example 374, rac-N-[2-amino-2-(3,4,5-trifluorophenyl)ethyl]-8-[(2,6-difluorobenzyl)oxy]-2,6-dimethylimidazo[1,2-a]pyridine-3-carboxamide] | 1.00
Cc1cc(OCc2c(F)cccc2F)c2nc(C)c(C(=O)NCC(N)c3cccc(OC(F)F)c3)n2c1 (racemic) [Example 375, rac-N-{2-amino-2-[3-(difluoromethoxy)phenyl]ethyl}-8-[(2,6-difluorobenzyl)oxy]-2,6-dimethylimidazo[1,2-a]pyridine-3-carboxamide] | 3.00
Cc1cc(OCc2c(F)cccc2F)c2nc(C)c(C(=O)NCC(N)c3cccc(C(F)(F)F)c3)n2c1 (racemic) [Example 376, rac-N-{2-amino-2-[3-(trifluoromethyl)phenyl]ethyl}-8-[(2,6-difluorobenzyl)oxy]-2,6-dimethylimidazo[1,2-a]pyridine-3-carboxamide] | 3.00
Cc1cc(OCc2c(F)cccc2F)c2nc(C)c(C(=O)NCC(N)c3cccc(OC(F)(F)F)c3)n2c1 (racemic) [Example 377, rac-N-{2-amino-2-[3-(trifluoromethoxy)phenyl]ethyl}-8-[(2,6-difluorobenzyl)oxy]-2,6-dimethylimidazo[1,2-a]pyridine-3-carboxamide] | 3.00
COc1cccc(C(N)CNC(=O)c2c(C)nc3c(OCc4c(F)cccc4F)cc(C)cn23)c1 (racemic) [Example 378, rac-N-[2-amino-2-(3-methoxyphenyl)ethyl]-8-[(2,6-difluorobenzyl)oxy]-2,6-dimethylimidazo[1,2-a]pyridine-3-carboxamide] | 1.00

Next, values leading:

MEC [µM] | Compound
1.00 | Cc1cc(OCc2c(F)cccc2F)c2nc(C)c(C(=O)NC(CN)c3ccc4ccccc4c3)n2c1 (racemic) [Example 379, rac-N-[2-amino-1-(2-naphthyl)ethyl]-8-[(2,6-difluorobenzyl)oxy]-2,6-dimethylimidazo[1,2-a]pyridine-3-carboxamide]
1.00 | Cc1cc(OCc2c(F)cccc2F)c2nc(C)c(C(=O)NC(CN)c3cccc(OC(F)(F)F)c3)n2c1 (racemic) [Example 380, rac-N-{2-amino-1-[3-(trifluoromethoxy)phenyl]ethyl}-8-[(2,6-difluorobenzyl)oxy]-2,6-dimethylimidazo[1,2-a]pyridine-3-carboxamide]
0.30 | Cc1cc(OCc2c(F)cccc2F)c2nc(C)c(C(=O)NC(CN)c3ccc4c(c3)OCO4)n2c1 (racemic) [Example 381, rac-N-[2-amino-1-(1,3-benzodioxol-5-yl)ethyl]-8-[(2,6-difluorobenzyl)oxy]-2,6-dimethylimidazo[1,2-a]pyridine-3-carboxamide]
0.30 | COc1cccc(C(CN)NC(=O)c2c(C)nc3c(OCc4c(F)cccc4F)cc(C)cn23)c1 (racemic) [Example 382, rac-N-[2-amino-1-(3-methoxyphenyl)ethyl]-8-[(2,6-difluorobenzyl)oxy]-2,6-dimethylimidazo[1,2-a]pyridine-3-carboxamide]
0.30 | Cc1cc(OCc2c(F)cccc2F)c2nc(C)c(C(=O)NC(CN)c3cccc(Br)c3)n2c1 (racemic) [Example 383, rac-N-[2-amino-1-(3-bromophenyl)ethyl]-8-[(2,6-difluorobenzyl)oxy]-2,6-dimethylimidazo[1,2-a]pyridine-3-carboxamide]
0.30 | Cc1cc(OCc2c(F)cccc2F)c2nc(C)c(C(=O)NC(CN)c3ccc([N+](=O)[O-])cc3)n2c1 (racemic) [Example 384, rac-N-[2-amino-1-(4-nitrophenyl)ethyl]-8-[(2,6-difluorobenzyl)oxy]-2,6-dimethylimidazo[1,2-a]pyridine-3-carboxamide]
1.00 | C=Cc1cccc(C(CN)NC(=O)c2c(C)nc3c(OCc4c(F)cccc4F)cc(C)cn23)c1 (racemic) [Example 385, rac-N-[2-amino-1-(3-ethenylphenyl)ethyl]-8-[(2,6-difluorobenzyl)oxy]-2,6-dimethylimidazo[1,2-a]pyridine-3-carboxamide]
0.65 | COc1ccc(CC(C)(CN)NC(=O)c2c(C)nc3c(OCc4c(F)cccc4F)cc(C)cn23)cc1 (racemic) [Example 386, rac-N-[1-amino-3-(4-methoxyphenyl)-2-methylpropan-2-yl]-8-[(2,6-difluorobenzyl)oxy]-2,6-dimethylimidazo[1,2-a]pyridine-3-carboxamide]
10.0 | Cc1cc(OCc2c(F)cccc2F)c2nc(C)c(C(=O)NC(CN)c3cnn(C)c3)n2c1 (racemic) [Example 387, rac-N-[2-amino-1-(1-methyl-1H-pyrazol-4-yl)ethyl]-8-[(2,6-difluorobenzyl)oxy]-2,6-dimethylimidazo[1,2-a]pyridine-3-carboxamide]
0.30 | Cc1cc(OCc2c(F)cccc2F)c2nc(C)c(C(=O)NC(CN)c3ccc4c(c3)OCCO4)n2c1 (racemic) [Example 388, rac-N-[2-amino-1-(2,3-dihydro-1,4-benzodioxin-6-yl)ethyl]-8-[(2,6-difluorobenzyl)oxy]-2,6-dimethylimidazo[1,2-a]pyridine-3-carboxamide]
1.00 | Cc1cc(OCc2c(F)cccc2F)c2nc(C)c(C(=O)NC(CN)c3csc4ccccc34)n2c1 (racemic) [Example 389, rac-N-[2-amino-1-(1-benzothiophen-3-yl)ethyl]-8-[(2,6-difluorobenzyl)oxy]-2,6-dimethylimidazo[1,2-a]pyridine-3-carboxamide]
